Assay results published in patent publication US20090169630A1, “Methods and Compositions for Controlled and Sustained Production and Delivery of Peroxides and/or Oxygen for Biological and Industrial Applications” (priority 2006, published 2009).

Experiments:
hypoxemic rabbits = conditions: cited from earlier work
[1] = Permeation (diffusion) cell: hydrogen peroxide release from UHP/PFC slurry across a flat PLGA membrane; format: physicochemical; conditions: UHP/PFC slurry below, distilled water above
Description: A diffusion cell was constructed in order to measure the release rate of hydrogen peroxide from UHP and its diffusion across a selectively permeable membrane. UHP was dispersed in a PFC liquid and maintained in the bottom half of the cell. Rather than coat the particles, a flat PLGA membrane was used to separate the UHP from distilled water located in the top half of the cell. The PLGA membrane is permeable to water and hydrogen peroxide, but is a very effective barrier to permeation of the PFC. Thus, during the experiment, water diffused across the PLGA membrane and into the PFC/UHP slurry in the bottom half of the cell. Hydrogen peroxide was generated when the water contacted the UHP. The hydrogen peroxide then diffused through the PLGA membrane into the top half of the diffusion cell.
The amount of hydrogen peroxide in the top half of the cell was monitored colorimetrically by testing samples that were periodically removed from the water-rich phase in the top half of the cell. […]

| SMILES | rise in arterial PO2 (hypoxemic rabbits; hypoxemic rabbits, intravenous UHP) [mmHg] | outcome at amounts that would supply the oxygen consumption needs of a rabbit (hypoxemic rabbits; rabbits, high UHP amounts) | diffusion through the PLGA membrane [1] |
| --- | --- | --- | --- |
| NC(N)=O.OO [UHP, urea hydrogen peroxide] | 10 | died of gas emboli | – |
| NC(N)=O [urea] | – | – | did not diffuse through the membrane |
